According to patent US9453051B2, “Cyclosporin derivatives” (priority 2011, dated 2016):

Tests used:
calcineurin = calcineurin (Homo sapiens, UniProt P62937+P63098+Q08209); experiment: Inhibition of the phosphatase activity of calcineurin (scintillation-proximity-assay, in presence of Cyp18);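 also: calcineurin dephosphorylation of a ³³P-labelled RII phosphopeptide, captured on streptavidin-coated wells and read by scintillation counting, with uninhibited enzyme activity taken as 100%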
Procedure: The measurement was carried out by incubation of 10 μMol of the biotinylated phosphopeptide [sequence]pSer-Val-Ala-Ala-Glu (MW=2192.0) (RH-peptide) marked with ^33P in a sample buffer (40 mM Tris-HCl, pH 7.5, 100 mM NaCl, 6 mM MgCl2, 0.5 mM dithiothreitol, 1 mM. CaCl2, 0.1 mg/ml bovine serum albumin) in presence of 50 nM calmodulin and 1.32 nM calcineurin at 30° C. for 20 min in a 96 well micro titer plate (Costar, Bodenheim, Germany). The total volume of the assay/well was 100 μl. After this reaction time a 90 μl aliquot of the reaction mixture was transferred into a scintillation cavity coated with streptavidin and incubated for 20 min at 22° C. After a washing step the RII phosphopeptide-associated ^33P radioactivity was measured in a MicroBeta Top Counter (Wallac) and the enzyme activity was indicated as average value of three measurements±S.D. The uninhibited dephosphorylation activity has been set on 100%.

[1] = Determination of cell permeability in PAMPA cell membranes (Parallel Artificial Membrane Permeability Assay); format: in vitro ADME; conditions: 500 μM, Hepes buffer pH 7.4, 16 hours, room temperature
Procedure: After an incubation of 16 hours at room temperature in a liquid chamber the optical density of the solution after filtration has been measured in a range of 250 to 500 nm in steps of 10 nm each. The percentage “Flux” has been calculated from the integral of the graph between 250 and 500 nm and standardized on the optical density determined in the parallel reaction without artificial membrane.

NFAT = experiment: Cellular NFAT-reporter-gene assay (GloResponse NFAT-RE-luc2P HEK293); format: cell-based; conditions: Homo sapiens, HEK293, 16 h, read-out: NFAT-reporter-gene assay IC50
Source text: An antigen specific stimulation of the T-cell receptor causes the activation of transcription factors such as e.g. NFAT (nuclear factor of activated T cells). NFAT-activation is essential for the expression of interleukine-2 and therefore, for the proliferation of T-cells as part of the immune response. A stable NFAT-reporter-gene cell line enables the analysis of modulators of the NFAT-pathways and thus, the evaluation of the immunosuppressive effects of compounds.
The stably transfected reporter-gene cell line GloResponse NFAT-RE-luc2P HEK293 (promega Corp. USA) was cultivated in DMEM (10% FCS; 2 mM Glutamin; 200 μg/ml Hygromycin) and seeded on 96-well plates (200.000 cells/well). The compounds to be tested were either added to the cells in a 2-point-determination (5 μM and 10 μM) or an ICH-determination (concentration series 4.1 nM-1 μM). […] Immediately thereafter the cells were stimulated with 5 nM PMA and 2 μM ionomycin and incubated over 16 h (37° C.; cell incubator). This double stimulation simulates a T-cell receptor stimulation and causes a NFAT activation with subsequently expression of the luciferase-reporter-gene. The amount of luciferase was quantitatively determined after 16 h by measurement of the bioluminescence by Bright-Glo Luciferase-Assay-System (Promega Corp., USA). The averaged luciferase values of the vehicle treated (1% DMSO) and with PMA/ionomycin stimulated cells were used as positive control and reference value.

in vitro = conditions: human, Caco-2, pH 7.4
[2] = biological target: recombinant human wild type Cyp18 (Cyp18 wt) (Homo sapiens, UniProt P62937); experiment: biochemical
Sequence of recombinant human wild type Cyp18 (Cyp18 wt) (P62937 whole entry): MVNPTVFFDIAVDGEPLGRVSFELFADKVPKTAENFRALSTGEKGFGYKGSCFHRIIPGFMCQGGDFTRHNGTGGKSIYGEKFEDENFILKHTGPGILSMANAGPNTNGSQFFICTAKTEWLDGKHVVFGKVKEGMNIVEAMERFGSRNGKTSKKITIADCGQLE

| SMILES | IC50 (calcineurin) [µM] | Cell permeability in PAMPA-cell membranes [1] [% flux] | IC50 (NFAT) [µM] | Papp A→B at 2 h, 5 μM (in vitro) [×10⁻⁶ cm/s] | IC50 [2] [µM] | Papp B→A at 2 h, 5 μM (in vitro) [×10⁻⁶ cm/s] |
| --- | --- | --- | --- | --- | --- | --- |
| CC[C@@H]1NC(=O)[C@H]([C@H](O)[C@H](C)Cc2nc3cc(C(=O)O)ccc3n2C)N(C)C(=O)[C@H](C(C)C)N(C)C(=O)[C@H](CC(C)C)N(C)C(=O)[C@H](CC(C)C)N(C)C(=O)[C@@H](C)NC(=O)[C@H](C)NC(=O)[C@H](CC(C)C)N(C)C(=O)[C@H](C(C)C)NC(=O)[C@H](CC(C)C)N(C)C(=O)CN(C)C1=O [Compound 36] | > 10 | 0.7 | > 10 | 0.3 | – | – |
| CC[C@@H]1NC(=O)[C@H]([C@H](O)[C@H](C)Cc2nc3ccc(C(=O)O)cc3n2C)N(C)C(=O)[C@H](C(C)C)N(C)C(=O)[C@H](CC(C)C)N(C)C(=O)[C@H](CC(C)C)N(C)C(=O)[C@@H](C)NC(=O)[C@H](C)NC(=O)[C@H](CC(C)C)N(C)C(=O)[C@H](C(C)C)NC(=O)[C@H](CC(C)C)N(C)C(=O)CN(C)C1=O [Compound 37] | – | 2 | > 10 | 0.1 | – | – |
| CC[C@@H]1NC(=O)[C@H]([C@H](O)[C@H](C)Cc2nc3cc(S(N)(=O)=O)ccc3[nH]2)N(C)C(=O)[C@H](C(C)C)N(C)C(=O)[C@H](CC(C)C)N(C)C(=O)[C@H](CC(C)C)N(C)C(=O)[C@@H](C)NC(=O)[C@H](C)NC(=O)[C@H](CC(C)C)N(C)C(=O)[C@H](C(C)C)NC(=O)[C@H](CC(C)C)N(C)C(=O)CN(C)C1=O [Compound 34] | 6.4 | 19.9 | > 10 | < 0.6 | 0.0164 | 0.87 |
| CC[C@@H]1NC(=O)[C@H]([C@H](O)[C@H](C)Cc2nc3cc(C(N)=O)ccc3[nH]2)N(C)C(=O)[C@H](C(C)C)N(C)C(=O)[C@H](CC(C)C)N(C)C(=O)[C@H](CC(C)C)N(C)C(=O)[C@@H](C)NC(=O)[C@H](C)NC(=O)[C@H](CC(C)C)N(C)C(=O)[C@H](C(C)C)NC(=O)[C@H](CC(C)C)N(C)C(=O)CN(C)C1=O [Compound 23] | > 10 | – | > 10 | 0.3 | 0.0038 | 0.6 |
| CC[C@@H]1NC(=O)[C@H]([C@H](O)[C@H](C)Cc2nc3cc(-c4nnn[nH]4)ccc3[nH]2)N(C)C(=O)[C@H](C(C)C)N(C)C(=O)[C@H](CC(C)C)N(C)C(=O)[C@H](CC(C)C)N(C)C(=O)[C@@H](C)NC(=O)[C@H](C)NC(=O)[C@H](CC(C)C)N(C)C(=O)[C@H](C(C)C)NC(=O)[C@H](CC(C)C)N(C)C(=O)CN(C)C1=O [Compound 33] | > 10 | 0.25 | > 10 | < 0.15 | – | < 0.15 |
| CC[C@@H]1NC(=O)[C@H]([C@H](O)[C@H](C)Cc2nc3cc(C(=O)O)c(C(=O)O)cc3[nH]2)N(C)C(=O)[C@H](C(C)C)N(C)C(=O)[C@H](CC(C)C)N(C)C(=O)[C@H](CC(C)C)N(C)C(=O)[C@@H](C)NC(=O)[C@H](C)NC(=O)[C@H](CC(C)C)N(C)C(=O)[C@H](C(C)C)NC(=O)[C@H](CC(C)C)N(C)C(=O)CN(C)C1=O [Compound 31] | – | 0.2 | > 10 | < 0.15 | 0.0399 | < 0.18 |
| CC[C@@H]1NC(=O)[C@H]([C@H](O)[C@H](C)Cc2nc3cc(C(=N)N)ccc3[nH]2)N(C)C(=O)[C@H](C(C)C)N(C)C(=O)[C@H](CC(C)C)N(C)C(=O)[C@H](CC(C)C)N(C)C(=O)[C@@H](C)NC(=O)[C@H](C)NC(=O)[C@H](CC(C)C)N(C)C(=O)[C@H](C(C)C)NC(=O)[C@H](CC(C)C)N(C)C(=O)CN(C)C1=O [Compound 35] | 4.8 | 4 | > 10 | < 0.35 | 0.012 | < 0.46 |
| CC[C@@H]1NC(=O)[C@H]([C@H](O)[C@H](C)Cc2nc3cc(S(=O)(=O)O)ccc3[nH]2)N(C)C(=O)[C@H](C(C)C)N(C)C(=O)[C@H](CC(C)C)N(C)C(=O)[C@H](CC(C)C)N(C)C(=O)[C@@H](C)NC(=O)[C@H](C)NC(=O)[C@H](CC(C)C)N(C)C(=O)[C@H](C(C)C)NC(=O)[C@H](CC(C)C)N(C)C(=O)CN(C)C1=O [Compound 22] | > 10 | 4.1 | > 10 | 0.9 | 0.0087 | – |
| CC[C@@H]1NC(=O)[C@H]([C@H](O)[C@H](C)Cc2nc3cccc(C(=O)O)c3[nH]2)N(C)C(=O)[C@H](C(C)C)N(C)C(=O)[C@H](CC(C)C)N(C)C(=O)[C@H](CC(C)C)N(C)C(=O)[C@@H](C)NC(=O)[C@H](C)NC(=O)[C@H](CC(C)C)N(C)C(=O)[C@H](C(C)C)NC(=O)[C@H](CC(C)C)N(C)C(=O)CN(C)C1=O [Compound 28] | – | 3.3 | > 10 | < 0.4 | – | 0.3 |
| CC[C@@H]1NC(=O)[C@H]([C@H](O)[C@H](C)Cc2nc3cc(F)cc(C(=O)O)c3[nH]2)N(C)C(=O)[C@H](C(C)C)N(C)C(=O)[C@H](CC(C)C)N(C)C(=O)[C@H](CC(C)C)N(C)C(=O)[C@@H](C)NC(=O)[C@H](C)NC(=O)[C@H](CC(C)C)N(C)C(=O)[C@H](C(C)C)NC(=O)[C@H](CC(C)C)N(C)C(=O)CN(C)C1=O [Compound 21] | > 10 | – | 5.3 | – | 0.0222 | – |
| CCOC(=O)c1ccc2[nH]c(C[C@@H](C)[C@@H](O)[C@H]3C(=O)N[C@@H](CC)C(=O)N(C)CC(=O)N(C)[C@@H](CC(C)C)C(=O)N[C@@H](C(C)C)C(=O)N(C)[C@@H](CC(C)C)C(=O)N[C@@H](C)C(=O)N[C@H](C)C(=O)N(C)[C@@H](CC(C)C)C(=O)N(C)[C@@H](CC(C)C)C(=O)N(C)[C@@H](C(C)C)C(=O)N3C)nc2c1 [Compound 9] | 7 | – | > 10 | – | 0.0139 | – |
| CC[C@@H]1NC(=O)[C@H]([C@H](O)[C@H](C)Cc2nc3cc(C(=O)NN)ccc3[nH]2)N(C)C(=O)[C@H](C(C)C)N(C)C(=O)[C@H](CC(C)C)N(C)C(=O)[C@H](CC(C)C)N(C)C(=O)[C@@H](C)NC(=O)[C@H](C)NC(=O)[C@H](CC(C)C)N(C)C(=O)[C@H](C(C)C)NC(=O)[C@H](CC(C)C)N(C)C(=O)CN(C)C1=O [Compound 19] | 7 | – | > 10 | – | 0.0054 | – |
| CC[C@@H]1NC(=O)[C@H]([C@H](O)[C@H](C)Cc2nc3cc(C(=O)OC)c(C(=O)OC)cc3[nH]2)N(C)C(=O)[C@H](C(C)C)N(C)C(=O)[C@H](CC(C)C)N(C)C(=O)[C@H](CC(C)C)N(C)C(=O)[C@@H](C)NC(=O)[C@H](C)NC(=O)[C@H](CC(C)C)N(C)C(=O)[C@H](C(C)C)NC(=O)[C@H](CC(C)C)N(C)C(=O)CN(C)C1=O [Compound 32] | > 10 | – | > 10 | – | 0.0249 | – |
| CC[C@@H]1NC(=O)[C@H]([C@H](O)[C@H](C)Cc2nc3c(F)c(F)cc(S(=O)(=O)O)c3[nH]2)N(C)C(=O)[C@H](C(C)C)N(C)C(=O)[C@H](CC(C)C)N(C)C(=O)[C@H](CC(C)C)N(C)C(=O)[C@@H](C)NC(=O)[C@H](C)NC(=O)[C@H](CC(C)C)N(C)C(=O)[C@H](C(C)C)NC(=O)[C@H](CC(C)C)N(C)C(=O)CN(C)C1=O [Compound 20] | > 10 | – | > 10 | – | 0.0067 | – |
| CCC(CC)COC(=O)c1ccc2[nH]c(C[C@@H](C)[C@@H](O)[C@H]3C(=O)N[C@@H](CC)C(=O)N(C)CC(=O)N(C)[C@@H](CC(C)C)C(=O)N[C@@H](C(C)C)C(=O)N(C)[C@@H](CC(C)C)C(=O)N[C@@H](C)C(=O)N[C@H](C)C(=O)N(C)[C@@H](CC(C)C)C(=O)N(C)[C@@H](CC(C)C)C(=O)N(C)[C@@H](C(C)C)C(=O)N3C)nc2c1 [Compound 10] | 6.9 | – | > 10 | – | 0.0115 | – |
